From publication PMC6257776, “Synthesis and Antitumor Activity of Diterpenylhydroquinone Derivatives of Natural Ent-Labdanes” (Molecules, 2010)

Key:
[1] = SRB cell growth inhibition assay, DHF (non-tumoral); assay type: cell-based; settings: dermal human fibroblasts (DHF), non-tumoral cells, 72 h exposure, read-out: Cytotoxicity IC50, DHF
Procedure: (§1) The antitumor cytotoxicity of the compounds was evaluated in vitro against […] different cancer cell lines: PC-3 and DU-145 human prostate cancer, MCF-7 and MDA-MB-231 breast carcinoma and one non-tumoral cell line, dermal human fibroblasts (DHF). A conventional colorimetric assay was set up to estimate the IC50 values, which represent the concentration of a drug that is required for 50% inhibition in vitro after 72 h of continuous exposure to the test compounds. Four serial dilutions (from 12.5 to 100 µM) for each sample were evaluated in triplicate. The results obtained from these assays are shown in Table 1 and the following general observations can be made as a result: the natural ent-labdanes derivatives 3-5 (IC50 > 100) were the least cytotoxic of the series.
(§2) The colorimetric assay using sulforhodamine B (SRB) was realized following an adaptation of the described method by Skehan et al.. Cells were seeded in 96-well microtiter plates, at5 × 10^3 cells per well in aliquots of 100 µL of DMEM/F-12 medium, and they were allowed to attach to the plate surface by growing in drug-free medium for 18 h. Afterward, compounds samples were added in aliquots (dissolved in EtOH/H2O) to achieve a final concentration of 100, 50, 25 12.5 µM. After 72 h exposure, the in vitro cytotoxicity was measured by the SRB dye assay. Cells were fixed by adding cold 50% (wt/vol) trichloroacetic acid (TCA, 25 µL) and incubating for 60 min at 4 °C. Plates were washed with deionized water and dried; SRB solution (0.1% wt/vol in 1% acetic acid, 50 µL) was added to each microtiter well and incubated for 30 min at room temperature. Unbound SRB is removed by washing with 1% acetic acid. Plates were air-dried and bound stain was solubilized with Tris base (100 µL, 10 mM). Optical densities were read on an automated spectrophotometer plate reader at a single wavelength of 540 nm. Values shown are the % viability vs. ctrl + SD, n = four independent experiments in triplicate.

[2] = test system: MCF-7 breast carcinoma cells; test: SRB cell growth inhibition assay, MCF-7; assay type: cell-based, human; settings: for IC50: Homo sapiens, MCF7, MCF-7 cells, 72 h exposure, SRB, read-out: Cytotoxicity IC50, MCF-7; for cytotoxic bioactivity against MCF-7 (in words): MCF-7 breast carcinoma
Procedure: as §1, §2

[3] = test system: PC-3 human prostate cancer cells; test: SRB cell growth inhibition assay, PC-3; assay type: cell-based; settings: PC-3 cells, 72 h exposure, read-out: Cytotoxicity IC50, PC-3
Procedure: as §1, §2

[4] = test system: DU-145 human prostate cancer cells; test: SRB cell growth inhibition assay, DU-145; assay type: cell-based; settings: DU-145 cells, 72 h exposure, read-out: Cytotoxicity IC50, DU-145
Procedure: as §1, §2

[5] = test system: MDA-MB-231 breast carcinoma cells; test: SRB cell growth inhibition assay, MDA-MB-231; assay type: cell-based, human; settings: for IC50: Homo sapiens, MDA-MB-231 cells, 72 h exposure, SRB, read-out: Cytotoxicity IC50, MDA-MB-231; for cytotoxic bioactivity against MDA-MB-231 (in words): MDA-MB-231 breast carcinoma
Procedure: as §1, §2

| Compound | IC50 at 72 h [1] [µM] | IC50 [2] [µM] | IC50 [3] [µM] | IC50 [4] [µM] | IC50 [5] [µM] | cytotoxic bioactivity against MCF-7 (in words) [2] | cytotoxic bioactivity against MDA-MB-231 (in words) [5] |
| --- | --- | --- | --- | --- | --- | --- | --- |
| C=C1CC[C@@H]2C(C)(C)C[C@@H](O)C[C@@]2(C)[C@@H]1CC/C(C)=C/Cc1cc(O)ccc1O [Compound 8] | > 100 | 34 | 28.2 | 37.6 | 61.8 | – | – |
| C=C1CCC2C(C)(C)CC(O)CC2(C)C1CCC(C)=CCc1c(OC)cc(OC)cc1OC (stereo not drawn) [Compound 10, 2β-Hydroxy-15-phenyl-(22,24,26-trimethoxy)-ent-labda-8(17),13(E)-diene] | > 100 | 45.6 | 91.2 | > 100 | 85.9 | showed cytotoxic bioactivity | showed cytotoxic bioactivity |
| C=C1CC[C@@H]2C(C)(C)C[C@@H](O)C[C@@]2(C)[C@@H]1CC/C(C)=C\CO [Compound 6] | > 100 | 74.9 | > 100 | 96.2 | 96 | – | – |
| C=C1CC[C@@H]2C(C)(C)C[C@@H](OC(C)=O)C[C@@]2(C)[C@@H]1CC/C(C)=C\CO [Compound 5] | > 100 | > 100 | > 100 | > 100 | > 100 | – | – |
| C=C1CC[C@@H]2C(C)(C)C[C@@H](O)C[C@@]2(C)[C@@H]1CC/C(C)=C/CO [Compound 4] | > 100 | 90.6 | > 100 | > 100 | > 100 | – | – |
| C=C1CC[C@@H]2C(C)(C)C[C@@H](OC(C)=O)C[C@@]2(C)[C@@H]1CC/C(C)=C/CO [Compound 3] | > 100 | > 100 | > 100 | > 100 | > 100 | – | – |
| C=C1CC[C@@H]2C(C)(C)C[C@@H](OC(C)=O)C[C@@]2(C)[C@@H]1CC/C(C)=C/Cc1cc(O)ccc1O [Compound 7] | > 100 | 23.9 | 21.4 | 44.6 | 75.9 | – | – |
| C=C1CC[C@@H]2C(C)(C)C[C@@H](O)C[C@@]2(C)[C@@H]1CC/C(C)=C/COC(C)=O [Compound 11, 2β-Hydroxy-15-acetoxy-ent-labda-8(17),13(E)-diene] | > 100 | 86.9 | 35.6 | > 100 | > 100 | – | – |
| C=C1CC[C@@H]2C(C)(C)C[C@@H](OC(C)=O)C[C@@]2(C)[C@@H]1CC/C(C)=C/Cc1cc(OC(C)=O)ccc1OC(C)=O [Compound 9, 2β-Acetoxy-15-phenyl-(22,25-acetoxy)-ent-labda-8(17),13(E)-diene] | 72.3 | 41.1 | 64.3 | 62.9 | 33.8 | showed cytotoxic bioactivity | showed cytotoxic bioactivity |
